Test results from PubChem BioAssay AID588371 (Southern Research Specialized Biocontainment Screening …, 2011).
pIC50: −log10 of the molar value. Values joined by “and” are separate entries in the source; they are usually repeats but may differ in a detail not shown here. Equal entries are not always repeated. Results filed as inconclusive are left out. Active and inactive are the calls of the source. No rule for the calls is given here.

Test system: not listed separately
Test: antiviral activity against West Nile virus in cells, dose response, cell-based, EC_1, probe candidates (AID 588371)
Details: West Nile virus-infected cells, antiviral inhibition; at 50 µM (top of the series)

Row | SMILES | inhibition
1 | O=C(CSc1nc2cccc(F)c2c(=O)n1-c1ccc(Cl)c(F)c1)Nc1ccc2c(c1)CCC2 | -1.63% (inactive)
2 | O=C(CSc1nc2cccc(F)c2c(=O)n1-c1ccc(F)c(F)c1)Nc1ccc2c(c1)CCC2 | 1.72% (inactive)
3 | O=C(CSc1nc2cccc(F)c2c(=O)n1-c1ccccc1)Nc1ccc2c(c1)CCC2 | -0.4% (inactive)
4 | Cc1cnc(NC(=O)CSc2nc3ccccc3c(=O)n2-c2ccccc2)s1 | -1.61% (inactive)
5 | O=C(CSc1nc2cccc(F)c2c(=O)n1-c1ccccc1)Nc1ccc2ncsc2c1 | 1.43% (inactive)
6 | O=C(CSc1nc2ccccc2c(=O)n1-c1ccc(Cl)c(Cl)c1)Nc1cccc2c1CCC2 | -1.69% (inactive)
7 | O=C(CSc1nc2ccccc2c(=O)n1-c1cc(Cl)cc(Cl)c1)NC1CCc2ccccc21 (stereo not given) | 11.3% (inactive)
8 | O=C(CSc1nc2ccccc2c(=O)n1-c1ccccc1)Nc1nc(-c2ccccc2)cs1 | 0.7% (inactive)
9 | O=C(CCSc1nc2cccc(F)c2c(=O)n1-c1cc(F)c(F)c(F)c1)Nc1ccc2c(c1)CCC2 | 9.08% (inactive)
10 | O=C(CSc1nc2ccccc2c(=O)n1-c1cc(Cl)cc(Cl)c1)Nc1nccs1 | 18.5% (inactive)

Same assay, conditions: West Nile virus-infected cells, antiviral inhibition; at 100 µM (top of the series)

Row | SMILES | inhibition
11 | O=C(CSc1nc2ccccc2c(=O)n1-c1ccccc1)Nc1ncc([N+](=O)[O-])s1 | -1.85% (inactive)
12 | O=C(CCCSc1nc2cccc(F)c2c(=O)n1-c1ccc(F)c(F)c1)Nc1ccc2c(c1)CCC2 | -2.48% (inactive)
13 | O=C(CSc1nc2ccccc2c(=O)n1-c1ccccc1)NC1CCc2ccccc21 (stereo not given) | -0.61% (inactive)
14 | O=C(CSc1nc2ccccc2c(=O)n1-c1cc(Cl)cc(Cl)c1)NC1Cc2ccccc2C1 | -3.26% (inactive)
15 | Cc1csc(NC(=O)CSc2nc3ccccc3c(=O)n2-c2ccccc2)n1 | -3.31% (inactive)
16 | O=C(CCCCSc1nc2cccc(F)c2c(=O)n1-c1ccccc1)Nc1ccc2c(c1)CCC2 | -1.05% (inactive)
17 | O=C(CCSc1nc2cccc(F)c2c(=O)n1-c1ccc(Cl)c(F)c1)Nc1ccc2c(c1)CCC2 | 3.09% (inactive)
18 | O=C(CSc1nc2ccccc2c(=O)n1-c1ccccc1)N1CCCCCC1 | -1.69% (inactive)
19 | O=C(CCCCSc1nc2cccc(F)c2c(=O)n1-c1ccc(Cl)c(Cl)c1)Nc1ccc2c(c1)CCC2 | -1.71% (inactive)
20 | O=C(CSc1nc2cccc(F)c2c(=O)n1-c1ccccc1)Nc1cccc2c1CCC2 | -1.2% (inactive)
21 | O=C(CSc1nc2cccc(F)c2c(=O)n1-c1ccccc1)Nc1ccc2c(c1)OCO2 | 0.09% (inactive)
22 | O=C(CSc1nc2ccccc2c(=O)n1-c1ccccc1)NC1Cc2ccccc2C1 | -2% (inactive)
23 | O=C(CSc1nc2ccccc2c(=O)n1-c1ccccc1)Nc1ccc2c(c1)OCO2 | 2.32% (inactive)
24 | O=C(CSc1nc2ccccc2c(=O)n1-c1ccccc1)Nc1nc2ccc([N+](=O)[O-])cc2s1 | -2.6% (inactive)
25 | Cc1nc2cc(NC(=O)CSc3nc4ccccc4c(=O)n3-c3ccccc3)ccc2s1 | 2.35% (inactive)
26 | O=C(CCCSc1nc2ccccc2c(=O)n1-c1ccccc1)Nc1ccc2c(c1)CCC2 | -0.62% (inactive)
27 | O=C(CCCCSc1nc2cccc(F)c2c(=O)n1-c1ccc(Cl)c(F)c1)Nc1ccc2c(c1)CCC2 | -0.34% (inactive)
28 | O=C(CCSc1nc2cccc(F)c2c(=O)n1-c1ccc(Cl)c(Cl)c1)Nc1ccc2c(c1)CCC2 | -1.05% (inactive)
29 | O=C(CSc1nc2ccccc2c(=O)n1-c1ccc(Cl)c(Cl)c1)Nc1ccc2c(c1)OCO2 | -2.42% (inactive)
30 | O=C(CCCSc1nc2cccc(F)c2c(=O)n1-c1cc(F)c(F)c(F)c1)Nc1ccc2c(c1)CCC2 | -2.94% (inactive)
31 | O=C(CCCCSc1nc2cccc(F)c2c(=O)n1-c1ccc(F)c(F)c1)Nc1ccc2c(c1)CCC2 | 0.09% (inactive)
32 | O=C(CCCSc1nc2cccc(F)c2c(=O)n1-c1ccc(Cl)c(F)c1)Nc1ccc2c(c1)CCC2 | -2.66% (inactive)
33 | O=C(CCSc1nc2cccc(F)c2c(=O)n1-c1ccc(F)c(Br)c1)Nc1ccc2c(c1)CCC2 | -1.52% (inactive)

Row | SMILES | inhibition
34 | O=C(CSc1nc2cccc(F)c2c(=O)n1-c1ccc(Cl)c(Cl)c1)Nc1ccc2c(c1)CCC2 | -2.48% (inactive)
35 | O=C(CSc1nc2cccc(F)c2c(=O)n1-c1ccccc1)NC1CCCc2ccccc21 (stereo not given) | -0.94% (inactive)
36 | O=C(CCCSc1nc2cccc(F)c2c(=O)n1-c1ccc(Cl)c(Cl)c1)Nc1ccc2c(c1)CCC2 | -2.38% (inactive)
37 | O=C(CCCCSc1nc2cccc(F)c2c(=O)n1-c1cc(F)c(F)c(F)c1)Nc1ccc2c(c1)CCC2 | -1.19% (inactive)
38 | O=C(CSc1nc2ccccc2c(=O)n1-c1ccccc1)Nc1cccc2ccccc12 | -1.05% (inactive)
39 | O=C(CSc1nc2ccccc2c(=O)n1-c1ccccc1)Nc1cccc(-c2ccccc2)c1 | 0.04% (inactive)
40 | O=C(CSc1nc2ccccc2c(=O)n1-c1ccccc1)Nc1nc2cc(Cl)ccc2o1 | 8.31% (inactive)
41 | O=C(CSc1nc2ccccc2c(=O)n1-c1ccc(Cl)c(Cl)c1)Nc1cccc2ccccc12 | -1.85% (inactive)
42 | O=C(CSc1nc2cccc(F)c2c(=O)n1-c1ccc(F)c(Br)c1)Nc1ccc2c(c1)CCC2 | -2.48% (inactive)
43 | O=C(CCSc1nc2ccccc2c(=O)n1-c1ccc(Cl)c(Cl)c1)Nc1ccc2c(c1)CCC2 | -2.58% (inactive)
44 | O=C(CSc1nc2cccc(F)c2c(=O)n1-c1ccccc1)Nc1cccc2ccccc12 | -1.94% (inactive)
45 | O=C(CSc1nc2ccccc2c(=O)n1-c1ccc(F)c(Cl)c1)Nc1cccc2ccccc12 | -1.32% (inactive)
46 | O=C(CSc1nc2ccccc2c(=O)n1-c1ccccc1)Nc1nccs1 | -0.12% (inactive)
47 | O=C(CCCCSc1nc2cccc(F)c2c(=O)n1-c1ccc(F)c(Br)c1)Nc1ccc2c(c1)CCC2 | -1.81% (inactive)
48 | O=C(CCCSc1nc2cccc(F)c2c(=O)n1-c1ccc(F)c(Br)c1)Nc1ccc2c(c1)CCC2 | -2.67% (inactive)
49 | O=C(CSc1nc2ccccc2c(=O)n1-c1ccccc1)Nc1ccc2ncsc2c1 | -0.65% (inactive)
50 | O=C(CSc1nc2ccccc2c(=O)n1-c1cc(Cl)cc(Cl)c1)Nc1cccc2ccccc12 | -0.85% (inactive)
51 | O=C(CSc1nc2ccccc2c(=O)n1-c1ccccc1)NC1CCCc2ccccc21 (stereo not given) | -2% (inactive)
52 | O=C(CSc1nc2ccccc2c(=O)n1-c1ccccc1)Nc1cccc2c1CCC2 | 1.83% (inactive)
53 | O=C(CCSc1nc2cccc(F)c2c(=O)n1-c1ccc(F)c(F)c1)Nc1ccc2c(c1)CCC2 | -1.56% (inactive)
54 | O=C(CSc1nc2cccc(F)c2c(=O)n1-c1ccccc1)NC1Cc2ccccc2C1 | 0.89% (inactive)
55 | O=C(CCCCSc1nc2ccccc2c(=O)n1-c1ccccc1)Nc1ccc2c(c1)CCC2 | 18.5% (inactive)
56 | O=C(CCCSc1nc2cccc(F)c2c(=O)n1-c1ccccc1)Nc1ccc2c(c1)CCC2 | -2.02% (inactive)

Test system: West Nile virus-infected cells, antiviral inhibition
Test: as above
Details: not given

Row | SMILES | pIC50
57 | O=C(CSc1nc2ccccc2c(=O)n1-c1ccccc1)Nc1ccc2c(c1)CCC2 | 5.04 and 4.93
58 | O=C(CSc1nc2cccc(F)c2c(=O)n1-c1cc(F)c(F)c(F)c1)Nc1ccc2c(c1)CCC2 | 4.78
59 | O=C(CSc1nc2ccccc2c(=O)n1-c1cc(Cl)cc(Cl)c1)Nc1ccc2c(c1)CCC2 | 5.56
60 | O=C(CSc1nc2ccccc2c(=O)n1-c1ccc(Cl)c(Cl)c1)Nc1ccc2c(c1)CCC2 | 5.09
